Experimental data from PMC6941952, “A homogeneous bioluminescent immunoassay to probe cellular signaling pathway regulation” (Communications Biology, 2020).
Where “and” joins values, the source holds several entries; their conditions need not be identical. Identical values can stand only once.

Test system: total IκBα
Assay: NanoBiT cell-based immunoassay, total IκBα in MCF-7 cells
Design: species or system human
Conditions: for Average IkB protein (%) / Raw data IkB / Subtract reagent background IkB / protein (%) IkB: MCF-7, Fig 7c; for protein (%) IkB: replicate; for IkB degradation (% compared to no IKK16), Average / IkB degradation (% compared to no IKK16) / Non-Treated/Treated / Raw data / Subtract reagent background: TNF; for IkB degradation (% compared to no IKK16), Average: average of replicates; for IkB degradation (% compared to no IKK16) / Non-Treated/Treated / Raw data / Subtract reagent background: single replicates
How it was run: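 Cells were lysed in 0.1% digitonin buffer, then target protein was detected with two primary antibodies plus NanoBiT detection antibodies (90 min, 23 °C), read as luminescence minus reagent background. For pSTAT3, A431 cells were serum-starved overnight before inhibitor and stimulator. For IκBα, MCF-7 cells got inhibitor for 60 min before TNFα. IC50 came from variable-slope sigmoidal fits.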

[1] = MCF-7 cells, IKK16 0.000762939 uM
[2] = MCF-7 cells, IKK16 0.00305176 uM
[3] = MCF-7 cells, IKK16 0.0488281 uM

SMILES: C[C@]12CC[C@@H]3c4ccc(O)cc4C[C@@H](CCCCCCCCC[S+]([O-])CCCC(F)(F)C(F)(F)F)[C@H]3[C@@H]1CC[C@@H]2O (stereo partly shown) [Fulvestrant]
- Average IkB protein (%) (Fulvestrant 0.0976562 nM, 4 h): 103.1%
- Raw data IkB (Fulvestrant 0.0976562 nM, 4 h): 2320000 and 2388000 and 2321000
- Subtract reagent background IkB (Fulvestrant 0.0976562 nM, 4 h): 2160700 and 2093700 and 2092700
- protein (%) IkB (Fulvestrant 0.0976562 nM, 4 h): 102.8% and 100.3% and 106.3%
- Average IkB protein (%) (Fulvestrant 0.195312 nM, 4 h): 102.8%
- Raw data IkB (Fulvestrant 0.195312 nM, 4 h): 2292000 and 2388000 and 2330000
- Subtract reagent background IkB (Fulvestrant 0.195312 nM, 4 h): 2161100 and 2103100 and 2065100
- protein (%) IkB (Fulvestrant 0.195312 nM, 4 h): 102.8% and 100.7% and 104.9%
- Average IkB protein (%) (Fulvestrant 0.390625 nM, 4 h): 106.4%
- Raw data IkB (Fulvestrant 0.390625 nM, 4 h): 2337000 and 2479000 and 2412000
- Subtract reagent background IkB (Fulvestrant 0.390625 nM, 4 h): 2252550 and 2185550 and 2110550
- protein (%) IkB (Fulvestrant 0.390625 nM, 4 h): 107.1% and 104.7% and 107.3%
- Average IkB protein (%) (Fulvestrant 0.78125 nM, 4 h): 107.7%
- Raw data IkB (Fulvestrant 0.78125 nM, 4 h): 2309000 and 2550000 and 2458000
- Subtract reagent background IkB (Fulvestrant 0.78125 nM, 4 h): 2323650 and 2231650 and 2082650
- protein (%) IkB (Fulvestrant 0.78125 nM, 4 h): 110.5% and 106.9% and 105.8%
- Average IkB protein (%) (Fulvestrant 1.5625 nM, 4 h): 109.4%
- Raw data IkB (Fulvestrant 1.5625 nM, 4 h): 2305000 and 2596000 and 2525000
- Subtract reagent background IkB (Fulvestrant 1.5625 nM, 4 h): 2368700 and 2297700 and 2077700
- protein (%) IkB (Fulvestrant 1.5625 nM, 4 h): 110.1% and 105.6%
- Average IkB protein (%) (Fulvestrant 3.125 nM, 4 h): 110.7%
- Raw data IkB (Fulvestrant 3.125 nM, 4 h): 2392000 and 2556000 and 2547000
- Subtract reagent background IkB (Fulvestrant 3.125 nM, 4 h): 2330150 and 2321150 and 2166150
- protein (%) IkB (Fulvestrant 3.125 nM, 4 h): 110.8% and 111.2% and 110.1%
- Average IkB protein (%) (Fulvestrant 6.25 nM, 4 h): 107.5%
- Raw data IkB (Fulvestrant 6.25 nM, 4 h): 2316000 and 2499000 and 2485000
- Subtract reagent background IkB (Fulvestrant 6.25 nM, 4 h): 2273600 and 2259600 and 2090600
- protein (%) IkB (Fulvestrant 6.25 nM, 4 h): 108.1% and 108.2% and 106.2%
- Average IkB protein (%) (Fulvestrant 25 nM, 4 h): 102.2%
- Raw data IkB (Fulvestrant 25 nM, 4 h): 2228000 and 2399000 and 2343000
- Subtract reagent background IkB (Fulvestrant 25 nM, 4 h): 2174600 and 2118600 and 2003600
- protein (%) IkB (Fulvestrant 25 nM, 4 h): 103.4% and 101.5% and 101.8%
- Average IkB protein (%) (Fulvestrant 50 nM, 4 h): 99.5%
- Raw data IkB (Fulvestrant 50 nM, 4 h): 2216000 and 2302000 and 2278000
- Subtract reagent background IkB (Fulvestrant 50 nM, 4 h): 2078950 and 2054950 and 1992950
- protein (%) IkB (Fulvestrant 50 nM, 4 h): 98.9% and 98.4% and 101.3%
- Average IkB protein (%) (Fulvestrant 100 nM, 4 h): 94.0%
- Raw data IkB (Fulvestrant 100 nM, 4 h): 2084000 and 2146000 and 2219000
- Subtract reagent background IkB (Fulvestrant 100 nM, 4 h): 1926250 and 1999250 and 1864250
- protein (%) IkB (Fulvestrant 100 nM, 4 h): 91.6% and 95.8% and 94.7%
- cytotoxicity inferred from IκBα level (MCF-7 cells, 4 h): lack of cytotoxicity
- effect on IκBα protein level (MCF-7 cells, 4 h, same compound titration): did not affect

SMILES: O=C(c1ccc(Nc2nccc(-c3cc4ccccc4s3)n2)cc1)N1CCC(N2CCCC2)CC1 [IKK16]
- Total IkB Raw data (Figure 3a and 3b): 147500 and 141100 and 148400
- Total IkB Subtract reagent background (Figure 3a and 3b): 129800 and 128900 and 122500
- Total IkB Average (Figure 3a and 3b, background subtracted): 127067
- TNFα-induced reduction of total IκBα protein (MCF-7 cells, 10 µM 1 h, TNFα 50 ng per ml 10 min): abolished
- IkB degradation (% compared to no IKK16), Average [1]: 98.1%
- IkB degradation (% compared to no IKK16) [1]: 101% and 97% and 93%
- Non-Treated/Treated [1]: 4.060 and 4.672 and 4.565 and 4.365
- Raw data [1]: 21820 and 22100 and 21310 and 21710
- Subtract reagent background [1]: 13931 and 13141 and 13541 and 13651
- IkB degradation (% compared to no IKK16), Average [2]: 96.3%
- IkB degradation (% compared to no IKK16) [2]: 103% and 93% and 95% and 94%
- Non-Treated/Treated [2]: 4.119 and 4.303 and 4.479 and 4.413
- Raw data [2]: 21670 and 21900 and 22440 and 21970
- Subtract reagent background [2]: 13731 and 14271 and 13801 and 13501
- IkB degradation (% compared to no IKK16), Average (MCF-7 cells, IKK16 0.012207 uM): 97.0%
- IkB degradation (% compared to no IKK16) (MCF-7 cells, IKK16 0.012207 uM): 101% and 95% and 99% and 94%
- Non-Treated/Treated (MCF-7 cells, IKK16 0.012207 uM): 4.063 and 4.367 and 4.623 and 4.410
- Raw data (MCF-7 cells, IKK16 0.012207 uM): 21680 and 22090 and 22230 and 21540
- Subtract reagent background (MCF-7 cells, IKK16 0.012207 uM): 13921 and 14061 and 13371 and 13511
- IkB degradation (% compared to no IKK16), Average [3]: 102.5%
- IkB degradation (% compared to no IKK16) [3]: 101% and 107% and 103% and 99%
- Non-Treated/Treated [3]: 4.060 and 4.927 and 4.840 and 4.651
- Raw data [3]: 20980 and 22100 and 20630 and 20940
- Subtract reagent background [3]: 13931 and 12461 and 12771 and 12811
- IkB degradation (% compared to no IKK16), Average (MCF-7 cells, IKK16 0.195312 uM): 98.7%
- IkB degradation (% compared to no IKK16) (MCF-7 cells, IKK16 0.195312 uM): 99% and 97% and 98% and 100%
- Non-Treated/Treated (MCF-7 cells, IKK16 0.195312 uM): 3.986 and 4.488 and 4.616 and 4.698
- Raw data (MCF-7 cells, IKK16 0.195312 uM): 20850 and 22360 and 21850 and 21560
- Subtract reagent background (MCF-7 cells, IKK16 0.195312 uM): 14191 and 13681 and 13391 and 12681
- IkB degradation (% compared to no IKK16), Average (MCF-7 cells, IKK16 0.78125 uM): 84.0%
- IkB degradation (% compared to no IKK16) (MCF-7 cells, IKK16 0.78125 uM): 86% and 82% and 85%
- Non-Treated/Treated (MCF-7 cells, IKK16 0.78125 uM): 3.457 and 3.811 and 3.985 and 3.866
- Raw data (MCF-7 cells, IKK16 0.78125 uM): 23580 and 24530 and 24280 and 23680
- Subtract reagent background (MCF-7 cells, IKK16 0.78125 uM): 16361 and 16111 and 15511 and 15411
- IkB degradation (% compared to no IKK16), Average (MCF-7 cells, IKK16 3.125 uM): 40.0%
- IkB degradation (% compared to no IKK16) (MCF-7 cells, IKK16 3.125 uM): 42% and 41% and 39% and 38%
- Non-Treated/Treated (MCF-7 cells, IKK16 3.125 uM): 1.686 and 1.873 and 1.836 and 1.807
- Raw data (MCF-7 cells, IKK16 3.125 uM): 41140 and 41710 and 40950 and 41840
- Subtract reagent background (MCF-7 cells, IKK16 3.125 uM): 33541 and 32781 and 33671 and 32971
- IC50 (MCF-7 cells, pretreated 1 h, then TNFα 50 ng per ml 30 min, read-out: IC50, inhibition of TNFα induced degradation of IκBα): 1.44 µM
